One data set has as its system PS2.M G-quadruplex DNA. Put plainly: Luminescence response of Ir(III) complexes towards different forms of DNA. In kind it is binding. As to conditions: complex 1 μM, DNA 5 μM. The source says:
M G-quadruplex DNA (G4) over dsDNA (ds17) and ssDNA (CCRS-DEL), in particular IG4/IdsDNA refers to the ratio of the luminescent response of PS2. M G-quadruplex DNA over dsDNA (ds17); and IG4/IssDNA refers to the ratio of the luminescent response of PS2. M G-quadruplex DNA over ssDNA(CCR5-DEL).
M G-quadruplex DNA over dsDNA (ds17) and ssDNA (CCRS-DEL), in particular IG4/IdsDNA refers to the ratio of the luminescent response of PS2. M G-quadruplex DNA over dsDNA (ds17); and IG4/IssDNA refers to the ratio of the luminescent response of PS2. M G-quadruplex DNA over ssDNA(CCR5-DEL).
The G-quadruplex DNA-forming sequence (PS2. M) was annealed in Tris-HCl buffer (20 mM Tris, 100 mM KCl, pH 7.0) and were stored at −20° C. or less than −20° C. before use. Complex 1-17 (1 μM) was added to 5 μM of ssDNA, dsDNA or PS2. M G-quadruplex DNA in Tris-HCl buffer (20 mM Tris, pH 7.0).

The target of the next data set is T1, helicase (Hepatitis C virus genotype 1a, UniProt P27958).
T1 construct: upon the addition of 0.8 μM HCV NS3 helicase; purchased Prospec Inc. (Ness-Ziona, Israel)
T1 sequence (P27958 1027-1657): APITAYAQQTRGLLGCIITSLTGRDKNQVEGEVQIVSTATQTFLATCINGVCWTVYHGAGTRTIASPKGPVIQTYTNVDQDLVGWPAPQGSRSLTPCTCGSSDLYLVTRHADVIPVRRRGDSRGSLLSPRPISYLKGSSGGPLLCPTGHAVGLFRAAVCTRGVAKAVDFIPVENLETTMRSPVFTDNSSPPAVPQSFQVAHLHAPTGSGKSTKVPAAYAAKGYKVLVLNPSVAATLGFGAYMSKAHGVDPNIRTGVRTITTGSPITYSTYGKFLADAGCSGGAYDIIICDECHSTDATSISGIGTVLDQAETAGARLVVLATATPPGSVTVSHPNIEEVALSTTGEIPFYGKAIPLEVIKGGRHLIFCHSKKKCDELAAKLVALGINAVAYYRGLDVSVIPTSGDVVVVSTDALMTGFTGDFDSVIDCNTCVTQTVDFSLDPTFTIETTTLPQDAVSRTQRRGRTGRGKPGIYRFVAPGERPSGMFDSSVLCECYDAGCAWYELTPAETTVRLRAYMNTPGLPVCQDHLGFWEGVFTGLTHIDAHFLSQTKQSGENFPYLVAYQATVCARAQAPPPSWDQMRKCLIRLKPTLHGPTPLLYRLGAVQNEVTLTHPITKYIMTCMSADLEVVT
The data set is described as follows: Luminescence response of complexes towards helicase alone. An excerpt: M G-quadruplex DNA over helicase, IG4/Ihelicase refers to the ratio of the lunminscent response of PS2. M G-quadruplex DNA over helicase.

For another data set, the system named is Pu27 G-quadruplex DNA. The data set is described as follows: G-quadruplex fluorescent intercalator displacement (G4-FID) assay. In kind it is binding. As to the method:
The FID assay was performed as described. The Pu27 G-quadruplex DNA (0.25 μM) in Tris-HCl buffer (20 mM Tris, 100 mM KCl, pH 7.0) were annealed by heating at a temperature of 72-98° C., in particular 95° C., for at least 10 min. Indicated concentration of thiazole orange (0.5 μM for Pu27 G-quadruplex DNA and 0.5 μM for ds17) was added and the mixture was incubated for at least 30 minutes, in particular 1 hour. Emission measurement was taken after addition of each indicated concentration of complex 9 followed by an equilibration time for 5 minutes. The fluorescence area was converted into percentage of displacement (PD) by using the following equation. PD=100−[(FA/FA0)×100] (FA0=fluorescence area of DNA-TO complex in the absence of complex 9; FA=fluorescence area in the presence of complex 9).

Data set [1] in a line: Photophysical measurement. Type of data set: physicochemical. The procedure: Emission spectra and lifetime measurements for complexes were performed on a PTI TimeMaster C720 Spectrometer (Nitrogen laser: pulse output 337 nm) fitted with a 380 nm filter. Error limits were estimated: λ (±1 nm); τ (±10%); φ (±10%). All solvents used for the lifetime measurements were degassed using three cycles of freeze-vac-thaw.
Luminescence quantum yields were determined using the method of Demas and Crosby [Ru(bpy)3][PF6]2 in degassed acetonitrile as a standard reference solution (Φr=0.062) and calculated according to the following equation:
Φs=Φr(Br/Bs)(ns/nr)^2(Ds/Dr) • where the subscripts s and r refer to sample and reference standard solution respectively, n is the refractive index of the solvents, D is the integrated intensity, and Φ is the luminescence quantum yield. The quantity B was calculated by B=1−10^−AL, where A is the absorbance at the excitation wavelength and L is the optical path length.

Another data set concerns the target T2, HCV NS3 helicase (Hepatitis C virus genotype 1a, UniProt P27958).
T2 construct: upon the addition of 0.8 μM HCV NS3 helicase; purchased Prospec Inc. (Ness-Ziona, Israel)
Put plainly: G-quadruplex-based luminescent HCV NS3 helicase activity assay. Type of data set: biochemical. As to the method: The random-coil oligonucleotides ON1 (100 μM) and ON2 (100 μM) were incubated in Tris buffer (20 mM, pH 7.0). The solution was heated at a temperature of 72-98° C., in particular 95° C., for at least 30 seconds in particular 10 min, cooled to room temperature at 0.1° C./s, and further incubated at room temperature for 1 hour to ensure formation of the duplex substrate. The annealed product was stored at −20° C. before use. For assaying enzyme activity, 50 μL of Tris buffered solution (5 mM Tris-HCl, 5 mM NaCl, 1 mM MgCl2, 1 mM ATP, 0.1 mM DTT, pH 7.9) with the indicated concentrations of helicase or S1, Endo, DpnI, ExoI, EcoRI, RNase, DNase, and SSB were added to a solution containing the duplex substrate (0.25 μM). The mixture was heated to 37° C. for at least 30 minutes, e.g. 2 hours, to allow the indicated enzymes-catalyzed unwinding of the duplex substrate to take place. The duplex unwinding reaction was quenched by the addition of EDTA at a final concentration of 20 mM, and the mixture was subsequently diluted using Tris buffer (20 mM Tris, 20 mM KCl, 150 mM NH4Ac, pH 7.2) to a final volume of 500 μL. […] Emission spectra were recorded in the 500-720 nm range using an excitation wavelength of 360 nm.
For the detection of helicase activity in cell extract, 50 μL of Tris buffered solution (5 mM Tris-HCl, 5 mM NaCl, 1 mM MgCl2, 1 mM ATP, 0.1 mM DTT, pH 7.9) and the indicated concentrations of helicase were added to a solution containing the duplex substrate (0.25 μM) and cell extract. The mixture was heated to 37° C. for at least 30 minutes, e.g. 2 hours, to allow the helicase-catalyzed unwinding of the duplex substrate to take place. The duplex unwinding reaction was quenched by the addition of EDTA at a final concentration of 20 mM, and the mixture was subsequently diluted using Tris buffer (20 mM Tris, 20 mM KCl, 150 mM NH4Ac, pH 7.2) to a final volume of 500 μL. Finally, 1 μM of complex 9 was added to the mixture. Emission spectra were recorded in the 500-720 nm range using an excitation wavelength of 360 nm.

A further data set relates to F21T G-quadruplex DNA. Put plainly: FRET melting assay, G-quadruplex. Type of data set: binding. The settings on record: F21T 0.2 μM, complex 9 5 μM. The procedure: (§1) The ability of complex 9 to stabilize G-quadruplex DNA was investigated using a fluorescence resonance energy transfer (FRET) melting assay. The labeled G-quadruplex-forming oligonucleotide F21T, consisting of a sequence 5′-FAM-(SEQ ID NO: 5)-TAMRA-3′ (donor fluorophore FAM: 6-carboxyfluorescein; acceptor fluorophore TAMRA: 6-carboxytetramethylrhodamine), was diluted to 200 nM in a potassium cacodylate buffer (100 mM KCl, pH 7.0), and then heated from room temperature to 95° C. in the presence of the indicated concentrations of complex 9. The labeled duplex-forming oligonucleotide F10T, consisting of a sequence 5′-FAM-[…]-HEG-(SEQ ID NO: 6)-3′ (HEG linker: [(—CH2—CH2—O—)6]), was treated in the same manner, except that the buffer was changed to 10 mM lithium cacodylate (pH 7.4). Fluorescence readings were taken at intervals of 0.5° C. in a range of 25 to 95° C.

For a further data set, the system named is F10T dsDNA. The data set is described as follows: FRET melting assay, duplex. Type of data set: binding. The settings on record: F10T 0.2 μM, complex 9 5 μM. As to the method:
as §1

T2 sequence (P27958 1027-1657): as above

As to `F[P-](F)(F)(F)(F)F.[Ir+3].[c-]1ccccc1-c1ccc2ccccc2n1.[c-]1ccccc1-c1ccc2ccccc2n1.c1cnc2c(c1)ccc1cccnc12` [Complex 9], the “luminescence response in the presence of the PS2.M G-quadruplex” value in the data set on PS2.M G-quadruplex DNA is listed as “significantly enhanced luminescence response”. For the same compound, the “change in luminescence intensity of the complex 9+G-quadruplex ensemble upon addition of helicase” value at helicase (0.8 μM HCV NS3 helicase) was “no significant change”. Besides, the “luminescence enhancement in the presence of helicase only” value at helicase (helicase alone, no DNA) is reported as “no luminescence enhancement in the presence of helicase”. The “G4DC50, half-maximal concentration of compound required to displace 50% TO from DNA” value in the data set with Pu27 G-quadruplex DNA (Pu27 G-quadruplex DNA 0.25 μM, thiazole orange 0.5 μM, Tris-HCl buffer) is on record as “ca. 5 μM”. Also, in the data set on Pu27 G-quadruplex DNA (Pu27 G-quadruplex vs ds17 duplex), the “displacement of thiazole orange from G-quadruplex DNA compared with duplex DNA” value was “higher efficacy than from duplex DNA”. In addition, in data set [1], the Lifetime came out at 8.13 μs and the λem stood at 570 nm. The same compound displayed a Quantum yield in data set [1] (reference [Ru(bpy)3][PF6]2 in degassed acetonitrile) of 0.12. At HCV NS3 helicase (ON1-ON2 duplex substrate, K+), the “luminescence of complex 9 upon incubation with helicase and the ON1-ON2 duplex substrate” value is given as “significantly enhanced”. Further, the “luminescence of complex 9 in response to helicase for the mutant DNA sequences” value at HCV NS3 helicase (ON1m/ON2 duplex mutant 0.25 μM, helicase 0.9 μM, complex 9 1 μM) is on record as “slight decrease”. For the same compound, the “enhancement in luminescence of the system” value at HCV NS3 helicase (helicase concentration 0.9 μM) is “ca. 4.5 fold”. In addition, the “luminescence intensity of the system with increasing helicase in cell extract” value at HCV NS3 helicase (reaction system containing 0.5% (v/v) cell extract) is listed as “gradual increase in luminescence intensity”. For the same compound, the “detection limit of the assay for helicase” value at HCV NS3 helicase (signal-to-noise ratio (S/N) of 3) came to 0.09 µM. Further, the “increase of melting temperature (ΔTm) of F21T G-quadruplex” value in the data set on F21T G-quadruplex DNA was “about 13 °C”. The “change in the melting temperature of F10T dsDNA” value in the data set with F10T dsDNA was found to be 4 °C.

The values are drawn from patent US20170145472A1, “METHOD OF DETECTING HELICASE ACTIVITY” (University of Macau, priority 2015, published 2017).
